According to the supplement of paper PMC10307832:

Experiments:
Test in all cases: relative viability (nuclei count vs DMSO), 5 days (fraction); higher = more cells survive
CAP-232 = compound: C[C@H]([C@@H](C(=O)N)NC(=O)[C@@H]1CSSC[C@@H](C(=O)N[C@H](C(=O)N[C@@H](C(=O)N[C@H](C(=O)N1)CCCCN)CC2=CNC3=CC=CC=C32)CC4=CC=C(C=C4)O)NC(=O)[C@@H](CC5=CC=CC=C5)N)O [CAP-232]
Summary of the method: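 Hoechst staining, done together with fixation and permeabilisation, marked nuclei for 4× imaging and MetaXpress counting. This followed 5 days without medium change after lung cancer cell lines, kept overnight at 37 °C in 1536-well plates, were pinned with five library-drug doses (not always all listed) spaced by √10 on vehicle-anchored plates. Viability is the ratio of treated-well to vehicle-well nuclei, expressed as a median across plates. Plates passed only at control CV below 25% with at least one doubling.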

CAP-232 + Luminespib = compound: C[C@H]([C@@H](C(=O)N)NC(=O)[C@@H]1CSSC[C@@H](C(=O)N[C@H](C(=O)N[C@@H](C(=O)N[C@H](C(=O)N1)CCCCN)CC2=CNC3=CC=CC=C32)CC4=CC=C(C=C4)O)NC(=O)[C@@H](CC5=CC=CC=C5)N)O [CAP-232] + CCNC(=O)c1noc(-c2cc(C(C)C)c(O)cc2O)c1-c1ccc(CN2CCOCC2)cc1 [Luminespib] (partner 0.01 µM)
Summary of the method: (§1)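 Relative viability divides the nuclei count in treated wells by that in vehicle wells. Lung cancer cell lines were seeded in 1536-well plates, dosed by pin tool the next day, and fixed and stained after 5 days in one step with final 0.05% Triton X-100, 1% formaldehyde and 1 ug/ml Hoechst. Dosing was a single drug or a fixed anchor-drug dose plus five library-drug doses (not always all listed) in √10 steps, and values are medians of duplicate plates imaged at 4×.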

CAP-232 + Foretinib = compound: C[C@H]([C@@H](C(=O)N)NC(=O)[C@@H]1CSSC[C@@H](C(=O)N[C@H](C(=O)N[C@@H](C(=O)N[C@H](C(=O)N1)CCCCN)CC2=CNC3=CC=CC=C32)CC4=CC=C(C=C4)O)NC(=O)[C@@H](CC5=CC=CC=C5)N)O [CAP-232] + COc1cc2c(Oc3ccc(NC(=O)C4(C(=O)Nc5ccc(F)cc5)CC4)cc3F)ccnc2cc1OCCCN1CCOCC1 [Foretinib] (partner 0.25 µM)
Summary of the method: as §1

CAP-232 + OSI-027 = compound: C[C@H]([C@@H](C(=O)N)NC(=O)[C@@H]1CSSC[C@@H](C(=O)N[C@H](C(=O)N[C@@H](C(=O)N[C@H](C(=O)N1)CCCCN)CC2=CNC3=CC=CC=C32)CC4=CC=C(C=C4)O)NC(=O)[C@@H](CC5=CC=CC=C5)N)O [CAP-232] + COc1cccc2cc(-c3nc([C@H]4CC[C@H](C(=O)O)CC4)n4ncnc(N)c34)[nH]c12 [OSI-027] (partner 0.5 µM)
Summary of the method: as §1

CAP-232 + Tozasertib = compound: C[C@H]([C@@H](C(=O)N)NC(=O)[C@@H]1CSSC[C@@H](C(=O)N[C@H](C(=O)N[C@@H](C(=O)N[C@H](C(=O)N1)CCCCN)CC2=CNC3=CC=CC=C32)CC4=CC=C(C=C4)O)NC(=O)[C@@H](CC5=CC=CC=C5)N)O [CAP-232] + Cc1cc(Nc2cc(N3CCN(C)CC3)nc(Sc3ccc(NC(=O)C4CC4)cc3)n2)n[nH]1 [Tozasertib] (partner 0.1 µM)
Summary of the method: as §1

CAP-232 + Dasatinib = compound: C[C@H]([C@@H](C(=O)N)NC(=O)[C@@H]1CSSC[C@@H](C(=O)N[C@H](C(=O)N[C@@H](C(=O)N[C@H](C(=O)N1)CCCCN)CC2=CNC3=CC=CC=C32)CC4=CC=C(C=C4)O)NC(=O)[C@@H](CC5=CC=CC=C5)N)O [CAP-232] + Cc1nc(Nc2ncc(C(=O)Nc3c(C)cccc3Cl)s2)cc(N2CCN(CCO)CC2)n1 [Dasatinib] (partner 0.075 µM)
Summary of the method: as §1

CAP-232 + Phenformin = compound: C[C@H]([C@@H](C(=O)N)NC(=O)[C@@H]1CSSC[C@@H](C(=O)N[C@H](C(=O)N[C@@H](C(=O)N[C@H](C(=O)N1)CCCCN)CC2=CNC3=CC=CC=C32)CC4=CC=C(C=C4)O)NC(=O)[C@@H](CC5=CC=CC=C5)N)O [CAP-232] + N=C(N)NC(=N)NCCc1ccccc1 [Phenformin] (partner 250 µM)
Summary of the method: as §1

CAP-232 + Bortezomib = compound: C[C@H]([C@@H](C(=O)N)NC(=O)[C@@H]1CSSC[C@@H](C(=O)N[C@H](C(=O)N[C@@H](C(=O)N[C@H](C(=O)N1)CCCCN)CC2=CNC3=CC=CC=C32)CC4=CC=C(C=C4)O)NC(=O)[C@@H](CC5=CC=CC=C5)N)O [CAP-232] + CC(C)C[C@H](NC(=O)[C@H](Cc1ccccc1)NC(=O)c1cnccn1)B(O)O [Bortezomib] (partner 0.002 µM)
Summary of the method: as §1

CAP-232 + Navitoclax = compound: C[C@H]([C@@H](C(=O)N)NC(=O)[C@@H]1CSSC[C@@H](C(=O)N[C@H](C(=O)N[C@@H](C(=O)N[C@H](C(=O)N1)CCCCN)CC2=CNC3=CC=CC=C32)CC4=CC=C(C=C4)O)NC(=O)[C@@H](CC5=CC=CC=C5)N)O [CAP-232] + CC1(C)CCC(c2ccc(Cl)cc2)=C(CN2CCN(c3ccc(C(=O)NS(=O)(=O)c4ccc(N[C@H](CCN5CCOCC5)CSc5ccccc5)c(S(=O)(=O)C(F)(F)F)c4)cc3)CC2)C1 [Navitoclax] (partner 0.5 µM)
Summary of the method: as §1

CAP-232 + Lapatinib = compound: C[C@H]([C@@H](C(=O)N)NC(=O)[C@@H]1CSSC[C@@H](C(=O)N[C@H](C(=O)N[C@@H](C(=O)N[C@H](C(=O)N1)CCCCN)CC2=CNC3=CC=CC=C32)CC4=CC=C(C=C4)O)NC(=O)[C@@H](CC5=CC=CC=C5)N)O [CAP-232] + CS(=O)(=O)CCNCc1ccc(-c2ccc3ncnc(Nc4ccc(OCc5cccc(F)c5)c(Cl)c4)c3c2)o1 [Lapatinib] (partner 2 µM)
Summary of the method: as §1

CAP-232 + Pictilisib = compound: C[C@H]([C@@H](C(=O)N)NC(=O)[C@@H]1CSSC[C@@H](C(=O)N[C@H](C(=O)N[C@@H](C(=O)N[C@H](C(=O)N1)CCCCN)CC2=CNC3=CC=CC=C32)CC4=CC=C(C=C4)O)NC(=O)[C@@H](CC5=CC=CC=C5)N)O [CAP-232] + CS(=O)(=O)N1CCN(Cc2cc3nc(-c4cccc5[nH]ncc45)nc(N4CCOCC4)c3s2)CC1 [Pictilisib] (partner 1 µM)
Summary of the method: as §1

CAP-232 + Crizotinib = compound: C[C@H]([C@@H](C(=O)N)NC(=O)[C@@H]1CSSC[C@@H](C(=O)N[C@H](C(=O)N[C@@H](C(=O)N[C@H](C(=O)N1)CCCCN)CC2=CNC3=CC=CC=C32)CC4=CC=C(C=C4)O)NC(=O)[C@@H](CC5=CC=CC=C5)N)O [CAP-232] + C[C@@H](Oc1cc(-c2cnn(C3CCNCC3)c2)cnc1N)c1c(Cl)ccc(F)c1Cl [Crizotinib] (partner 1 µM)
Summary of the method: as §1

CAP-232 + Linsitinib = compound: C[C@H]([C@@H](C(=O)N)NC(=O)[C@@H]1CSSC[C@@H](C(=O)N[C@H](C(=O)N[C@@H](C(=O)N[C@H](C(=O)N1)CCCCN)CC2=CNC3=CC=CC=C32)CC4=CC=C(C=C4)O)NC(=O)[C@@H](CC5=CC=CC=C5)N)O [CAP-232] + C[C@]1(O)C[C@@H](c2nc(-c3ccc4ccc(-c5ccccc5)nc4c3)c3c(N)nccn32)C1 [Linsitinib] (partner 1 µM)
Summary of the method: as §1

CAP-232 + Alpelisib = compound: C[C@H]([C@@H](C(=O)N)NC(=O)[C@@H]1CSSC[C@@H](C(=O)N[C@H](C(=O)N[C@@H](C(=O)N[C@H](C(=O)N1)CCCCN)CC2=CNC3=CC=CC=C32)CC4=CC=C(C=C4)O)NC(=O)[C@@H](CC5=CC=CC=C5)N)O [CAP-232] + Cc1nc(NC(=O)N2CCC[C@H]2C(N)=O)sc1-c1ccnc(C(C)(C)C(F)(F)F)c1 [Alpelisib] (partner 2 µM)
Summary of the method: as §1

CAP-232 + Olaparib = compound: C[C@H]([C@@H](C(=O)N)NC(=O)[C@@H]1CSSC[C@@H](C(=O)N[C@H](C(=O)N[C@@H](C(=O)N[C@H](C(=O)N1)CCCCN)CC2=CNC3=CC=CC=C32)CC4=CC=C(C=C4)O)NC(=O)[C@@H](CC5=CC=CC=C5)N)O [CAP-232] + O=C(c1cc(Cc2n[nH]c(=O)c3ccccc23)ccc1F)N1CCN(C(=O)C2CC2)CC1 [Olaparib] (partner 8 µM)
Summary of the method: as §1

Question: Which results are given for NCI-H1623?
Answer: relative viability (CAP-232; 0.4 µM): 1.06; relative viability (CAP-232; 1.265 µM): 1.02; relative viability (CAP-232; 4 µM): 0.92; relative viability (CAP-232; 12.65 µM): 1.01; relative viability (CAP-232 + Luminespib; first compound 0.4 µM): 0.503; relative viability (CAP-232 + Luminespib; first compound 1.265 µM): 0.467; relative viability (CAP-232 + Luminespib; first compound 4 µM): 0.557; relative viability (CAP-232 + Luminespib; first compound 12.65 µM): 0.359; relative viability (CAP-232 + Foretinib; first compound 0.4 µM): 0.945; relative viability (CAP-232 + Foretinib; first compound 1.265 µM): 0.802; relative viability (CAP-232 + Foretinib; first compound 4 µM): 0.849; relative viability (CAP-232 + Foretinib; first compound 12.65 µM): 0.769; relative viability (CAP-232 + OSI-027; first compound 0.4 µM): 0.412; relative viability (CAP-232 + OSI-027; first compound 1.265 µM): 0.495; relative viability (CAP-232 + OSI-027; first compound 4 µM): 0.488; relative viability (CAP-232 + OSI-027; first compound 12.65 µM): 0.38; relative viability (CAP-232 + Tozasertib; first compound 0.4 µM): 0.713; relative viability (CAP-232 + Tozasertib; first compound 1.265 µM): 0.411; relative viability (CAP-232 + Tozasertib; first compound 4 µM): 0.465; relative viability (CAP-232 + Tozasertib; first compound 12.65 µM): 0.632; relative viability (CAP-232 + Dasatinib; first compound 0.4 µM): 0.612; relative viability (CAP-232 + Dasatinib; first compound 1.265 µM): 0.47; relative viability (CAP-232 + Dasatinib; first compound 4 µM): 0.521; relative viability (CAP-232 + Dasatinib; first compound 12.65 µM): 0.742; relative viability (CAP-232 + Phenformin; first compound 0.4 µM): 0.589; relative viability (CAP-232 + Phenformin; first compound 1.265 µM): 0.579; relative viability (CAP-232 + Phenformin; first compound 4 µM): 0.603; relative viability (CAP-232 + Phenformin; first compound 12.65 µM): 0.566

Question: Which results are given for EBC-1?
Answer: relative viability (CAP-232; 0.4 µM): 1.05; relative viability (CAP-232; 1.265 µM): 0.974; relative viability (CAP-232; 4 µM): 1.13; relative viability (CAP-232; 12.65 µM): 0.927; relative viability (CAP-232 + Bortezomib; first compound 0.4 µM): 0.512; relative viability (CAP-232 + Bortezomib; first compound 1.265 µM): 0.497; relative viability (CAP-232 + Bortezomib; first compound 4 µM): 0.567; relative viability (CAP-232 + Bortezomib; first compound 12.65 µM): 0.475; relative viability (CAP-232 + Navitoclax; first compound 0.4 µM): 0.315; relative viability (CAP-232 + Navitoclax; first compound 1.265 µM): 0.328; relative viability (CAP-232 + Navitoclax; first compound 4 µM): 0.363; relative viability (CAP-232 + Navitoclax; first compound 12.65 µM): 0.304; relative viability (CAP-232 + Foretinib; first compound 0.4 µM): 0.0884; relative viability (CAP-232 + Foretinib; first compound 1.265 µM): 0.129; relative viability (CAP-232 + Foretinib; first compound 4 µM): 0.101; relative viability (CAP-232 + Foretinib; first compound 12.65 µM): 0.0802; relative viability (CAP-232 + Lapatinib; first compound 0.4 µM): 0.181; relative viability (CAP-232 + Lapatinib; first compound 1.265 µM): 0.228; relative viability (CAP-232 + Lapatinib; first compound 4 µM): 0.194; relative viability (CAP-232 + Lapatinib; first compound 12.65 µM): 0.159; relative viability (CAP-232 + Pictilisib; first compound 0.4 µM): 0.363; relative viability (CAP-232 + Pictilisib; first compound 1.265 µM): 0.314; relative viability (CAP-232 + Pictilisib; first compound 4 µM): 0.391; relative viability (CAP-232 + Pictilisib; first compound 12.65 µM): 0.286; relative viability (CAP-232 + Crizotinib; first compound 0.4 µM): 0.194; relative viability (CAP-232 + Crizotinib; first compound 1.265 µM): 0.169; relative viability (CAP-232 + Crizotinib; first compound 4 µM): 0.178; relative viability (CAP-232 + Crizotinib; first compound 12.65 µM): 0.11; relative viability (CAP-232 + Linsitinib; first compound 0.4 µM): 1.04; relative viability (CAP-232 + Linsitinib; first compound 1.265 µM): 0.944; relative viability (CAP-232 + Linsitinib; first compound 4 µM): 0.904; relative viability (CAP-232 + Linsitinib; first compound 12.65 µM): 0.926; relative viability (CAP-232 + Alpelisib; first compound 0.4 µM): 0.876; relative viability (CAP-232 + Alpelisib; first compound 1.265 µM): 0.819; relative viability (CAP-232 + Alpelisib; first compound 4 µM): 0.846; relative viability (CAP-232 + Alpelisib; first compound 12.65 µM): 0.76; relative viability (CAP-232 + Olaparib; first compound 0.4 µM): 0.773; relative viability (CAP-232 + Olaparib; first compound 1.265 µM): 0.686; relative viability (CAP-232 + Olaparib; first compound 4 µM): 0.698; relative viability (CAP-232 + Olaparib; first compound 12.65 µM): 0.662
